Experimental data as given in patent US8883812B2, “Piperidinyl pyrimidine amides as Kv7 potassium channel openers” (Pfizer Inc., priority 2010, dated 2014).

How the values were obtained:
[1] = Predicted human efficacious concentration; conditions: unbound plasma
Male Wistar Han IGS rats = test: Safety studies - behavioral observations (rat DRF); conditions: for Rat DRF Dose, Threshold for MCS / Rat DRF Dose, NOEL / Rat DRF Dose, Threshold for SAE: oral gavage, single dose; for Rat DRF Dose, Threshold for MCS: manageable clinical signs; for Rat DRF Dose, NOEL: no observable effect limit; for Rat DRF Dose, Threshold for SAE: serious adverse event; for Rat DRF Dose, Threshold for MCS / Rat DRF Dose, NOEL / Rat DRF Dose, Threshold for SAE / margin with regards to serious adverse events: rat; for margin with regards to serious adverse events: text statement comparing with retigabine
[2] = Compound concentrations (exposure) in rat DRF safety study
in vivo = conditions: male, Wistar Han IGS (CRL:WI [Han]), rat, po
[3] = read-out: Rat DRF Cmax, Threshold for MCS, oral gavage, at MCS threshold dose
[4] = read-out: Rat DRF Cmax, Threshold for SAE, oral gavage, at SAE threshold dose
[5] = ratio of free brain exposure at the dose to projected human concentration

Row | Compound | Predicted human Ceff Cp,u [1] [nM] | Rat DRF Dose, Threshold for MCS (Male Wistar Han IGS rats) [mg/kg] | Rat DRF Dose, NOEL (Male Wistar Han IGS rats) [mg/kg] | Rat DRF Dose, Threshold for SAE (Male Wistar Han IGS rats) [mg/kg] | margin with regards to serious adverse events (Male Wistar Han IGS rats) [×] | Cmax ([2]; read-out: Rat DRF Cmax, NOEL, oral gavage, at NOEL dose) [nM] | Cmax [2, 3] [nM] | Cmax [2, 4] [nM] | Cmax (in vivo) [nM] | Rat DRF TI (toxicity index), NOEL (Male Wistar Han IGS rats; [5]) | Rat DRF TI (toxicity index), Threshold for MCS (Male Wistar Han IGS rats; [5]) | Rat DRF TI (toxicity index), Threshold for SAE (Male Wistar Han IGS rats; [5])
1 | CCOC(=O)Nc1ccc(NCc2ccc(F)cc2)cc1N [Retigabine, N-(2-amino-4-(4-fluorobenzylamino)-phenyl)carbamic acid ethyl ester, reference compound] | 607 | 30 to 50 | 30 | 50 | 3.9 | 870 | 870 to 2390 | 2390 |  |  |  | 
2 | COc1nc(N2CCC(OC)CC2)nc(OC)c1NC(=O)CC(C)(C)C [Example 1, N-(4,6-dimethoxy-2-(4-methoxypiperidin-1-yl)pyrimidin-5-yl)-3,3-dimethylbutanamide] | 13 | 10 | 3 | 100 | 69 |  | 99 | 866 | 54 | 4.2 | 7.6 | 67
